Earlier results as cited in patent US20170231227A1, “ANTIFUNGAL-GRAFTED POLYOLEFIN” (priority 2016, published 2017).

solubility in ethanol (pure ethanol): 40 ppm | solubility in water (water): poor
Compound: C[C@@H]1C/C=C/C=C/C=C/C=C/[C@H](O[C@@H]2O[C@H](C)[C@@H](O)[C@H](N)[C@@H]2O)C[C@@H]2O[C@](O)(C[C@@H](O)C[C@H]3O[C@@H]3/C=C/C(=O)O1)C[C@H](O)[C@H]2C(=O)O [Natamycin, natamycin]
